Assay results taken from ChEMBL document CHEMBL5291721, “A preclinical secondary pharmacology resource illuminates target-adverse drug reaction associations of marketed drugs” (Nat Commun, 2023).

What was measured:
[1] = target: Beta-2 adrenergic receptor (Homo sapiens, UniProt P07550)
[2] = target: Gamma-aminobutyric acid receptor subunit alpha-1 (Rattus norvegicus, UniProt P62813); format: functional
Melanocortin receptor 4 = Melanocortin receptor 4 (Homo sapiens, UniProt P32245)
D(3) dopamine receptor = D(3) dopamine receptor (Homo sapiens, UniProt P35462)
[3] = target: T1, Alpha-1A adrenergic receptor (Homo sapiens, UniProt P35348); format: functional, cell-based
T1 sequence (P35348 whole entry): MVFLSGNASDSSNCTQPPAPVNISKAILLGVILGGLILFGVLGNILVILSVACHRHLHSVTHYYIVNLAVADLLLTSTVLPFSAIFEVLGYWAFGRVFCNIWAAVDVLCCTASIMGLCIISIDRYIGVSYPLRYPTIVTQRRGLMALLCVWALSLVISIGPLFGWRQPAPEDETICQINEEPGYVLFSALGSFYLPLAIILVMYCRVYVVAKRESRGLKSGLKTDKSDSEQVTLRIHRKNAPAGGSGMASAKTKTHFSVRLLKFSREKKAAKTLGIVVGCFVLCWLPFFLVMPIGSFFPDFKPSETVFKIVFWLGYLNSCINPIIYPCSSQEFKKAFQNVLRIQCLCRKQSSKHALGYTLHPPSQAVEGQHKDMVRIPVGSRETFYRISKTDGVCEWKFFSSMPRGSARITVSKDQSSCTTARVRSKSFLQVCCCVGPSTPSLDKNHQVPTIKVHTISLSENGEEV

Progesterone receptor = target: T2, Progesterone receptor (Homo sapiens, UniProt P06401); format: functional
T2 sequence (P06401 whole entry): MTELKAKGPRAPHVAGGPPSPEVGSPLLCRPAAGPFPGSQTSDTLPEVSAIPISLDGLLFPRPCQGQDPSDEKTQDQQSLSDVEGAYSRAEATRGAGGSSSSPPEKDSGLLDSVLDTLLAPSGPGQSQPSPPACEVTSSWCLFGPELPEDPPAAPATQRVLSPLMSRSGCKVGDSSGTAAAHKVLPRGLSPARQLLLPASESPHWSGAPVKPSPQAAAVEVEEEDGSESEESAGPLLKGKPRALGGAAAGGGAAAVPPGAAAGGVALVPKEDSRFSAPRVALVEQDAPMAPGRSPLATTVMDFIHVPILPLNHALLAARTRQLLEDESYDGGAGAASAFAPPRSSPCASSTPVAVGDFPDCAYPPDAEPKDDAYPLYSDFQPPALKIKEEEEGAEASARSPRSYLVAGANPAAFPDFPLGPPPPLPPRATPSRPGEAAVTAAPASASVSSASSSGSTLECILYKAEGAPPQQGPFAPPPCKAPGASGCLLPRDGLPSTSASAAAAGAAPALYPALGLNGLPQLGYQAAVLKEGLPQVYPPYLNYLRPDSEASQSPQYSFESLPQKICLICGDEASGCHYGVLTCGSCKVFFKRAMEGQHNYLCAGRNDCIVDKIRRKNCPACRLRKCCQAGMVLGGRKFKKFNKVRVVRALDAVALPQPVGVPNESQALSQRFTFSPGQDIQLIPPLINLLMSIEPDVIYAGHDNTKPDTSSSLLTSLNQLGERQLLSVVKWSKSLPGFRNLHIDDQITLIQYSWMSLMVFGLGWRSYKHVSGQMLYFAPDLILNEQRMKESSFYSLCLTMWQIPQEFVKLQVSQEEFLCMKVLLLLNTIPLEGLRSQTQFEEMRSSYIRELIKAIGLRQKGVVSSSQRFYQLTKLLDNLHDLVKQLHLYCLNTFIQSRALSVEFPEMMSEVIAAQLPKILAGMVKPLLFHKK

[4] = target: T1, Alpha-1A adrenergic receptor; format: functional, cell-based; remark: listed apart in the source
Cannabinoid receptor 1 = Cannabinoid receptor 1 (Homo sapiens, UniProt P21554)
Mu-type opioid receptor = Mu-type opioid receptor (Homo sapiens, UniProt P35372)
[5] = target: T1, Alpha-1A adrenergic receptor
Endothelin-1 receptor = target: T3, Endothelin-1 receptor (Homo sapiens, UniProt P25101)
T3 sequence (P25101 whole entry): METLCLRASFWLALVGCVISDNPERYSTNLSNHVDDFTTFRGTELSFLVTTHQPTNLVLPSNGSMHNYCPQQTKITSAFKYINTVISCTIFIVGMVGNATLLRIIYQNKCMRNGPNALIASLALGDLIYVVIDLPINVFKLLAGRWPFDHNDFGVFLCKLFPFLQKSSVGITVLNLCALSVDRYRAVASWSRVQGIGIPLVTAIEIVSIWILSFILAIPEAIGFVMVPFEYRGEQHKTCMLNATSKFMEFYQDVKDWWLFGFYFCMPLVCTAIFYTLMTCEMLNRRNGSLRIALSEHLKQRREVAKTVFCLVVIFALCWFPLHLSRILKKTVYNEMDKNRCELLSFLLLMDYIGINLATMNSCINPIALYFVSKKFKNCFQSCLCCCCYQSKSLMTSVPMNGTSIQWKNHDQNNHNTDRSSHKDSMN
Also: assay procedure not described here.

Beta-2 adrenergic receptor, sequence (P07550 whole entry): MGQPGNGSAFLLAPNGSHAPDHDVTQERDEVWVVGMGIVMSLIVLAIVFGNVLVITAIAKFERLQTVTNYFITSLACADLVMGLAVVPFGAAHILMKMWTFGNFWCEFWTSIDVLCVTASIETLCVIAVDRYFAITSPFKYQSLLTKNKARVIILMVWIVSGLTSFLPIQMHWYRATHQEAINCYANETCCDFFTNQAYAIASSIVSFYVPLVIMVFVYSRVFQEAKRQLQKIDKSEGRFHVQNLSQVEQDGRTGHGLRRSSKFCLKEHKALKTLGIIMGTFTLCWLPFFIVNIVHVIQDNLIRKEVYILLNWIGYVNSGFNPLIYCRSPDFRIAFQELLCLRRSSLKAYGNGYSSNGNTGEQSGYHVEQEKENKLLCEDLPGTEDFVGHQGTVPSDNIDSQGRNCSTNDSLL
Cannabinoid receptor 1, sequence (P21554 whole entry): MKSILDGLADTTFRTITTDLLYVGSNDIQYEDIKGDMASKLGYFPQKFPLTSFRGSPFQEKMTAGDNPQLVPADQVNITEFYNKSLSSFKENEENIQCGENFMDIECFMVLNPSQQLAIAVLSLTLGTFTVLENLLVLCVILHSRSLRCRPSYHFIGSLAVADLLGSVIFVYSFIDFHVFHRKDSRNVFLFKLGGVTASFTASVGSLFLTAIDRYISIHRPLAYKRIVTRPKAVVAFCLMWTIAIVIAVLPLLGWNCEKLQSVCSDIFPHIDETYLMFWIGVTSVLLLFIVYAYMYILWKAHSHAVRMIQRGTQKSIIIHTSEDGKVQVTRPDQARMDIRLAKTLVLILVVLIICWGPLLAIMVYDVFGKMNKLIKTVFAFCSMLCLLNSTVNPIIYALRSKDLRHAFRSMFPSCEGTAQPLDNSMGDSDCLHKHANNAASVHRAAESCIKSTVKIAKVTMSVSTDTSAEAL
Gamma-aminobutyric acid receptor subunit alpha-1, sequence (P62813 whole entry): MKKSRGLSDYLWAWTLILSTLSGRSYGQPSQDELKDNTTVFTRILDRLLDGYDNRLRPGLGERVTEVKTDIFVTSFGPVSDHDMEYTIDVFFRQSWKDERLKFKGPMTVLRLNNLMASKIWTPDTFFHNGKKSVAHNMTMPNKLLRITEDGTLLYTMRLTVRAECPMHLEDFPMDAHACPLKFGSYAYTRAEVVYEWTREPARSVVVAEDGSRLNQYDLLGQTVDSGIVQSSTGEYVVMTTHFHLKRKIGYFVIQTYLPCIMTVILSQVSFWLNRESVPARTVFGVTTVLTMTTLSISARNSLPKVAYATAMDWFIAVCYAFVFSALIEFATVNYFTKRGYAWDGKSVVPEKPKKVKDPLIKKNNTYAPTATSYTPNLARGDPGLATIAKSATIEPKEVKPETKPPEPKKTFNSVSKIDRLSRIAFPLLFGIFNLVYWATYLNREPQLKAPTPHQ
Mu-type opioid receptor, sequence (P35372 whole entry): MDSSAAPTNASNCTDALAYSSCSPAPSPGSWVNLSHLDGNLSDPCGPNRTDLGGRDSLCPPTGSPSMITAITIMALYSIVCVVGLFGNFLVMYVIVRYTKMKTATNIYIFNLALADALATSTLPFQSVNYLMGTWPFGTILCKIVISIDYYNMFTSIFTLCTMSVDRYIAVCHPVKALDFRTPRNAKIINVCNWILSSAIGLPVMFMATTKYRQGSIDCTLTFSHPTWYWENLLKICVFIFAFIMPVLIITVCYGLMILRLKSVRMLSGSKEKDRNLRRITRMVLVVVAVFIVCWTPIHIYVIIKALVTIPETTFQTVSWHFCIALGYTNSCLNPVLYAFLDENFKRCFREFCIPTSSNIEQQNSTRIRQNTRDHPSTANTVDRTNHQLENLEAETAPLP
Melanocortin receptor 4, sequence (P32245 whole entry): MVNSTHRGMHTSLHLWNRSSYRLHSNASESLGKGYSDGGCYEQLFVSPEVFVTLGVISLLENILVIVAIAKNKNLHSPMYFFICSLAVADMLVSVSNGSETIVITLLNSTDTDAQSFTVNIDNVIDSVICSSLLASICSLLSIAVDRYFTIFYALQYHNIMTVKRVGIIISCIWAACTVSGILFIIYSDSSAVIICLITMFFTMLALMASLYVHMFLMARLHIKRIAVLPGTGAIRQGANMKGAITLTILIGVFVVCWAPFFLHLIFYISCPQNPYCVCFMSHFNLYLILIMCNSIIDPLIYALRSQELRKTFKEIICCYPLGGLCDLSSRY
D(3) dopamine receptor, sequence (P35462 whole entry): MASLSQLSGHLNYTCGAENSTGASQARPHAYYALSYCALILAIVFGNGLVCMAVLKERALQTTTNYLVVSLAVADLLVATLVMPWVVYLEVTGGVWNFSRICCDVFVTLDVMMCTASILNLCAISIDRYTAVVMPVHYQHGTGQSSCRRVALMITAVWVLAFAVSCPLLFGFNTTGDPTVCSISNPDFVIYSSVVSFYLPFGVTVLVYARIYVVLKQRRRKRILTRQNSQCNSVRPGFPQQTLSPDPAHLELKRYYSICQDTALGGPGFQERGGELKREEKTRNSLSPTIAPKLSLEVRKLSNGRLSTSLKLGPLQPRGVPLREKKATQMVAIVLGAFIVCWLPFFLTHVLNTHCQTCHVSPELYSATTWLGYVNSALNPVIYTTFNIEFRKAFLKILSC

| SMILES | AC50 [1] | AC50 [2] | AC50 (Melanocortin receptor 4) | AC50 (D(3) dopamine receptor) | AC50 [3] | AC50 (Progesterone receptor) | AC50 [4] | AC50 (Cannabinoid receptor 1) | AC50 (Mu-type opioid receptor) | AC50 [5] | AC50 (Endothelin-1 receptor) |
| --- | --- | --- | --- | --- | --- | --- | --- | --- | --- | --- | --- |
| Nc1nc(/C(=C/CC(=O)O)C(=O)N[C@@H]2C(=O)N3C(C(=O)O)=CCS[C@H]23)cs1 [CEFTIBUTEN] | > 30 µM | > 30 µM | > 30 µM | > 30 µM | > 30 µM | > 30 µM | > 30 µM | > 30 µM | – | – | – |
| CO[C@@H]1[C@@H](O[C@@H]2O[C@H](C)[C@@H](O[C@H]3C[C@@](C)(O)[C@@H](OC(=O)CC(C)C)[C@H](C)O3)[C@H](N(C)C)[C@H]2O)[C@@H](CC=O)C[C@@H](C)[C@@H](O)/C=C/C=C/C[C@@H](C)OC(=O)C[C@H]1OC(C)=O [JOSAMYCIN] | > 10 µM | > 10 µM | > 10 µM | > 30 µM | – | > 10 µM | – | > 10 µM | > 30 µM | – | – |
| C[C@](N)(Cc1ccc(O)c(O)c1)C(=O)O [METHYLDOPA] | > 10 µM | > 10 µM | > 10 µM | > 30 µM | – | > 30 µM | – | > 10 µM | > 30 µM | 7.1 µM | – |
| CN1C(=O)OC(C)(C)C1=O [TRIMETHADIONE] | > 10 µM | > 10 µM | > 10 µM | > 30 µM | – | > 10 µM | – | > 10 µM | > 30 µM | > 10 µM | – |
| Cc1cc(O)c(C(=O)N[C@@H](C(=O)N[C@@H]2C(=O)N3C(C(=O)O)=C(CSc4nnnn4C)CS[C@H]23)c2ccc(O)cc2)cn1 [CEFPIRAMIDE] | > 30 µM | > 30 µM | > 30 µM | > 30 µM | – | > 30 µM | – | > 30 µM | – | > 30 µM | – |
| COC(=O)[C@H]1[C@H]2C[C@@H]3c4[nH]c5cc(OC)ccc5c4CCN3C[C@H]2C[C@@H](OC(=O)/C=C/c2cc(OC)c(OC)c(OC)c2)[C@@H]1OC [RESCINNAMINE] | > 10 µM | > 10 µM | > 10 µM | > 30 µM | – | > 10 µM | – | > 10 µM | > 10 µM | – | – |
| C#C[C@]1(O)CC[C@H]2[C@@H]3CCc4cc(OC5CCCC5)ccc4[C@H]3CC[C@@]21C [QUINESTROL] | > 10 µM | > 10 µM | > 10 µM | > 30 µM | – | 0.221 µM | – | > 10 µM | > 30 µM | > 10 µM | – |
| CC(C[N+](C)(C)C)OC(N)=O (stereo not drawn) [BETHANECHOL] | > 10 µM | > 10 µM | > 10 µM | > 30 µM | – | > 10 µM | – | > 10 µM | > 30 µM | > 10 µM | – |
| C/C(O)=C(\C#N)C(=O)Nc1ccc(C(F)(F)F)cc1 [TERIFLUNOMIDE] | – | > 30 µM | – | > 30 µM | 21 µM | > 30 µM | > 30 µM | – | > 30 µM | – | > 30 µM |
| NCC(=O)CCC(=O)O [AMINOLEVULINIC ACID] | – | > 30 µM | – | > 30 µM | > 30 µM | > 30 µM | > 30 µM | – | > 30 µM | – | > 30 µM |
| O=C(O)[C@H](CC(=O)N1C[C@H]2CCCC[C@H]2C1)Cc1ccccc1 [MITIGLINIDE] | > 10 µM | > 10 µM | > 10 µM | > 30 µM | – | > 10 µM | – | > 10 µM | > 30 µM | > 10 µM | – |
| Cc1cccc(C(C)c2cnc[nH]2)c1C (stereo not drawn) [MEDETOMIDINE] | > 30 µM | > 10 µM | > 30 µM | > 30 µM | – | > 30 µM | – | > 30 µM | > 30 µM | 0.11 µM | – |
| C[C@H](CSC(=O)c1ccccc1)C(=O)N1C[C@@H](Sc2ccccc2)C[C@H]1C(=O)O [ZOFENOPRIL] | > 10 µM | > 10 µM | > 10 µM | > 30 µM | – | > 10 µM | – | > 10 µM | > 30 µM | > 10 µM | – |
| Cc1ccc(S(=O)(=O)NC(=O)NN2CC3CCCC3C2)cc1 (stereo not drawn) [GLICLAZIDE] | > 10 µM | > 10 µM | > 10 µM | > 30 µM | – | > 10 µM | – | > 10 µM | > 30 µM | > 30 µM | – |
| CC(C)=CCC/C(C)=C/C=C/C(C)=C/C=C/C(C)=C/C=C/C=C(C)/C=C/C=C(C)/C=C/C=C(\C)CCC=C(C)C [LYCOPENE] | > 30 µM | > 30 µM | – | > 30 µM | > 30 µM | > 30 µM | > 30 µM | > 30 µM | – | – | > 30 µM |
| C[C@]1(O)CC[C@H]2[C@@H]3CCC4=CC(=O)CC[C@]4(C)[C@@]3(F)[C@@H](O)C[C@@]21C [FLUOXYMESTERONE] | > 10 µM | > 10 µM | > 10 µM | > 30 µM | – | 0.074 µM | – | > 10 µM | > 30 µM | > 30 µM | – |
| C=CCC1(C(C)CC)C(=O)NC(=O)NC1=O (stereo not drawn) [TALBUTAL] | > 10 µM | > 10 µM | > 10 µM | > 30 µM | – | > 10 µM | – | > 10 µM | > 30 µM | > 10 µM | – |
| COC(=O)C1=C(C)NC(C)=C(C(=O)OC(C)(C)CN(C)CCC(c2ccccc2)c2ccccc2)C1c1cccc([N+](=O)[O-])c1 (stereo not drawn) [LERCANIDIPINE] | > 30 µM | > 30 µM | > 30 µM | > 30 µM | – | > 30 µM | – | 6.6 µM | – | 5.7 µM | – |
| O=C(O)C1=C(CSc2nnnn2CS(=O)(=O)O)CS[C@@H]2[C@H](NC(=O)[C@H](O)c3ccccc3)C(=O)N12 [CEFONICID] | > 30 µM | > 30 µM | > 30 µM | > 30 µM | > 30 µM | > 30 µM | > 30 µM | > 30 µM | – | > 30 µM | – |
| C[C@]12CC[C@H]3[C@@H](CCC4=CC(=O)CC[C@@]43C)[C@@H]1CC[C@@H]2O [TESTOSTERONE] | > 10 µM | > 10 µM | > 10 µM | > 30 µM | – | 0.092 µM | – | > 10 µM | > 30 µM | > 30 µM | – |
| O=C(NCCN1CCOCC1)c1ccc(Cl)cc1 [MOCLOBEMIDE] | > 10 µM | > 10 µM | > 10 µM | > 30 µM | – | > 10 µM | – | > 10 µM | > 30 µM | > 10 µM | – |
| CC(C(=O)O)c1ccc(N2Cc3ccccc3C2=O)cc1 (stereo not drawn) [INDOPROFEN] | > 30 µM | > 30 µM | – | > 30 µM | > 30 µM | 16.8 µM | > 30 µM | > 30 µM | > 30 µM | > 30 µM | > 30 µM |
